Results reported in patent publication US6403826B1, “Corrosion-inhibiting coating composition for metals” (Ciba Specialty Chemicals Corporation, priority 1996, dated 2002).

Legend:
[1] = Humidity test ASTM D 4585-87, 330 hours, of acrylic dispersion coating (Maincote HG-54) with corrosion inhibitor; corrosion protection factor CPF; settings: humidity test 330 hours, coat thickness 45 to 50 μm; for CPF film / CPF metal: maximum 6 points, greater = better; for CPF: sum of film and metal, maximum 12 points
Protocol: (§1) In order to prepare the coating formulation (acrylic dispersion based on Maincote HG-54), components 1 to 8 (formulation without amine salt) and components 1 to 9 (formulation comprising an amine salt) are employed in the sequence stated (see Table 1).
(§2) Components 1 to 8 or 1 to 9 are dispersed using a high-speed stirrer at 3000 revolutions/minute to a degree of ground fineness or ground particulate nature of <15 μm. The outcome of dispersing the pigment paste thus obtained is assessed by determining the grindometer value (ISO 1524).The amount of the novel salts employed is based on the overall solids content of the formulation without salt (overall solids content 47%). Accordingly, an addition of, say, 1.0% of amine salt to 100 g of dispersion denotes, for example, an amount of 0.47 g. To complete the coating formulation, components 10 to 16 of Table 1 are added at a reduced stirring speed (1000 revolutions/minute) in the stated sequence. Subsequently, the pH of the formulation is checked and, if appropriate, is adjusted prior to application to a value of from 8 to 8.5 using ammonia solution (25% strength).
[…] Drying conditions: 10 days at room temperature.
(§3) Prior to the beginning of weathering, the “coating films” undergo defined damage in the form of a parallel cut (i.e. parallel to the longest panel edge) using a Bonder cross-cut instrument (Mod. 205; manufactured and sold by Lau, 5870 Hemer/Germany). The panel edges are protected by applying an edge protector (Icosit® 255; manufactured by Inertol AG, Winterthur/Switzerland).
(§4) The samples are subsequently subjected to accelerated weathering in a salt spray test in accordance with DIN 50 021 SS for 168 hours (Table 2) or to a humidity test in accordance with ASTM D 4585-87 for 330 hours (Table 3). The assessment of the results is based on the relevant DIN standards in accordance with an evaluation key, by the indication of a corrosion protection value CPF (Corrosion Protection Factor). The CPF is an additive term composed of an assessment of the coating (film) and an assessment of visible underfilm corrosion and appearance of the metal surface, and has a maximum of 12 points. The individual maximum values are 6 points each. The greater the CPF, the better the protection against corrosion.

[2] = Salt spray test DIN 50 021 SS, 168 hours, of acrylic dispersion coating (Maincote HG-54) with corrosion inhibitor; corrosion protection factor CPF; settings: salt spray 168 hours, coat thickness 50 to 55 μm; for CPF film / CPF metal: maximum 6 points, greater = better; for CPF: sum of film and metal, maximum 12 points
Protocol: as §1, §2
(§5) The coating formulations are applied to steel panels (19×10.5 cm) of the Bonder type (cold-rolled degreased steel; manufactured by Chemetall, Frankfurt am Main/Germany) in a coat thickness which after drying amounts to 50-55 μm. Drying conditions: 10 days at room temperature.
as §3, §4

[3] = Wet adhesion of the coating formulation, DIN 53 151 crosshatch cut and tape tearoff test, after the humidity test; settings: after humidity test 330 hours, scale Gt 0 (completely intact adhesion) to Gt 5 (inadequate adhesion)
Protocol: as §5
(§6) As additional assessment criteria, the “subfilm migration in the wet state” (cathodic delamination) along the artificial damage side is determined, after the end of the salt spray test, in accordance with DIN 53 167. […] After the end of the humidity test, the wet adhesion of the coating formulation is determined in accordance with DIN 53 151 by making a crosshatch cut followed by the tape tearoff test. According to DIN 53 151 (scale from Gt 0 to Gt 5) a crosshatch value of Gt 0 corresponds to completely intact adhesion of the coating film, whereas Gt 5 corresponds to inadequate adhesion.

[4] = Subfilm migration in the wet state (cathodic delamination) along the artificial damage, DIN 53 167, after the salt spray test; settings: after salt spray 168 hours, coat thickness 50 to 55 μm, lesser = more effective
Text: as §5, §3, §6

[5] = 1% inhibitor on overall solids content
[6] = 2% inhibitor on overall solids content

Compound	CPF film [1, 5]	CPF metal [1, 5]	CPF ([1]; 1% inhibitor)	CPF film [1, 6]	CPF metal [1, 6]	CPF ([1]; 2% inhibitor)	CPF film [2, 5]	CPF metal [2, 5]	CPF ([2]; 1% inhibitor)	Wet adhesion (Gt value) ([3]; 1% inhibitor)	Wet adhesion (Gt value) ([3]; 2% inhibitor)	Cathodic delamination (mm total) ([4]; 1% inhibitor)	CPF film [2, 6]	CPF metal [2, 6]	CPF ([2]; 2% inhibitor)	Cathodic delamination (mm total) ([4]; 2% inhibitor)
CCCCCCN(CP(=O)(O)O)CP(=O)(O)O.CCN1CCOCC1.CCN1CCOCC1 [Example 10, n-Hexylaminobismethylenephosphonic Acid, Salt with Two Equivalents of N-ethylmorpholine]	4.0	3.8	7.8	4.4	6.0	10.4	4.6	5.4	10.0	0 Gt	0 Gt	24 mm	–	–	–	–
CCCCCCCCCCN(CP(=O)(O)O)CP(=O)(O)O.CCN1CCOCC1.CCN1CCOCC1 [Example 8, n-Decylaminobismethylenephosphonic Acid, Salt with Two Equivalents of N-ethylmorpholine]	5.2	4.7	9.9	–	–	–	5.2	5.4	10.6	0-1 Gt	–	12 mm	5.2	5.2	10.4	10 mm
CCCCCCCCCCCCCCCCCCN(CP(=O)(O)O)CP(=O)(O)O.CCN1CCOCC1.CCN1CCOCC1 [Example 1, n-Octadecylaminobismethylenephosphonic Acid, Salt with Two Equivalents of N-ethylmorpholine]	4.0	4.0	8.0	5.0	4.0	9.0	6.0	5.0	11.0	0 Gt	0 Gt	28 mm	6.0	5.2	11.2	30 mm
CCCCCCCCN(CP(=O)(O)O)CP(=O)(O)O.CCN1CCOCC1.CCN1CCOCC1 [Example 9, n-Octylaminobismethylenephosphonic Acid, Salt with Two Equivalents of N-ethylmorpholine]	4.4	4.0	8.4	4.8	5.4	10.2	5.6	5.4	11.0	0 Gt	0 Gt	12 mm	–	–	–	–
CCCCCCCCCCCCCCCCN(CP(=O)(O)O)CP(=O)(O)O.CCN1CCOCC1.CCN1CCOCC1 [Example 5, n-Hexadecylaminobismethylenephosphonic Acid, Salt with Two Equivalents of N-ethylmorpholine]	4.2	5.0	9.2	–	–	–	5.2	5.0	10.2	0 Gt	–	26 mm	–	–	–	–
CCCCCCCCCCCCN(CP(=O)(O)O)CP(=O)(O)O.OCCN(CCO)CCO.OCCN(CCO)CCO [Example 16, n-Dodecylaminobismethylenephosphonic Acid, Salt with Two Equivalents of Triethanolamine]	–	–	–	4.8	3.6	8.4	4.8	4.4	9.2	–	0 Gt	16 mm	–	–	–	–
